Publication PMC6560211, “ApoAI-derived peptide increases glucose tolerance and prevents formation of atherosclerosis in mice” (Diabetologia, 2019)
No end group written: not given here.

Tests used:
C2C12 myotubes = experiment: Glucose uptake in muscle myotubes; assay type: cell-based, rat; details: different concentrations of RG54; three independent experiments
Experimental: C2C12 myoblasts were differentiated to myotubes by switching from growth media to 2% FBS DMEM for 7 days, with the addition of cytosine arabinoside (Sigma, Stockholm, Sweden) from day 3 to 5 to eliminate proliferating cells. Prior to stimulation, cells starved for 2 h in serum-free DMEM were treated as described and glucose uptake measurements were carried out. See ESM Methods for more details.
Fig. 3 RG54 induces skeletal muscle glucose uptake and primes INS-1E cells to increase GSIS. (a) C2C12 skeletal muscle myotubes were incubated in the absence or presence of different concentrations of RG54 or with insulin, followed by glucose uptake measurements. Values are means ± SEM from three independent experiments. *p≤0.05, **p≤0.01, ***p≤0.001 vs control. (b) INS-1E cells were incubated for 2 h in the absence or presence of different concentrations of RG54 in a low-glucose environment (preincubation). Buffer was replaced with one containing low (3.3 mmol/l) or high (20 mmol/l) glucose but no RG54 peptide. Insulin secretion was measured after 1 h glucose challenge. […]
No statistical methods were used to predetermine sample sizes, but sample sizes are similar to those reported in the field. […] Group allocation was blinded for all mouse work when possible (such as collection of blood or tissues, sample quantification and analysis, and atherosclerosis scoring). […]

[1] = rHDL formation, particle size by DLS; details: 1:100 protein:lipid molar ratio, extruded 100 nm MLVs, 4 days (96 h), 24°C
Experimental: 1,2-dimyristoyl-sn-glycero-3-phosphocholine (DMPC; Avanti Polar Lipids, Alabaster, AL, USA) was formed into 100 nm multilamellar vesicles (MLV) via extrusion using the LiposoFast system (Avestin, Ottawa, ON, Canada) as previously described. MLV were incubated with RG54 or ApoA-I at the indicated ratios for 4 days at 24°C to form rHDL. The resulting particle sizes were measured by dynamic light scattering (DLS) using a Zetasizer APS (Malvern Instruments, Uppsala, Sweden).
The reduced initial rate may be due to a more complex binding pattern of the larger number of RG54 peptides needed per formed particle: four to five RG54 molecules (54 amino acids each) are needed to make up the size of full-length ApoA-I (243 amino acids). A qualitative assessment of particle formation was therefore next used to evaluate and compare the sizes of formed rHDL. The hydrodynamic diameters of lipid–protein complexes formed after extended incubation (96 h) of RG54 or ApoA-I with extruded 100 nm MLVs were estimated using DLS.
ESM Figure 4. Lipid clearance and peptide-lipid complex formation activity of RG54 compared with full-length ApoA-I. […]

**Q.** Which results are given for “Ac-AEYHAKATEHLSTLSEKAKPALEDLRQGLLPVLESFKVSFLSALEEYTKKLNTQ [RG54]”?
**A.** glucose uptake (C2C12 myotubes): dose-dependent stimulation; lipid-protein complexes formed (DLS frequency plots) [1]: single peaks corresponding to rHDL particles
